The source of these data is US7943606B2, “Compositions and methods to control abnormal cell growth” (CanCure Laboratories, LLC, priority 2005, dated 2011).

The subject of one assay is CaOV-3 cells. The assay can be described thus: Viability of CaOV-3 ovarian cancer cells (MTT assay). The settings on record: for inhibition at 100 µM / IC50: Homo sapiens, Caov-3, 72 hours; for inhibition at 100 µM: read-out: Decrease in cell number (maximal decrease = 100%), CaOV-3. Format: cell-based, human. Here is the method: (§1) To quantify cell death, around the time when significant and characteristic morphological changes took place, cells were pulse-labeled for 10 minutes with [^3H]thymidine to measure DNA activity as described elsewhere [Tomono, M. and Kiss, Z. (1995), “Ethanol enhances the stimulatory effects of insulin and insulin-like growth factor-I on DNA synthesis in NIH 3T3 fibroblasts,” Biochem. Biophys. Res. Commun. 208, 63-67]. Also, cells were collected as suspensions using trypsin, an established method in cell biology, followed by re-plating of cells in fresh tissue culture medium. If no viable cells were obtained after one week in culture, it meant that the cells at the time of re-plating were dead. Survival values obtained with untreated cells were considered 100%. For the determination of relative number of viable cells after treatments, in most cases the MTT assay was used. This calorimetric assay is based on the ability of living cells, but not dead cells, to reduce 3-(4,5-dimethyl thiazol-2-yl)-2,5-diphenyltetrazolium bromide [Carmichael, J, De Graff, W. G., Gazdar, A. F., Minna, J. D. and Mitchell, J. B. (1987), “Evaluation of tetrazolium-based semi-automated calorimetric assay: Assessment of chemosensitivity testing,” Cancer Res. 47, 936-942]. For this assay, cells were plated in 96-well plates, and the MTT assay was performed both in untreated and treated cell cultures. The MTT assay also was performed at the start of treatments to allow assessment of proliferation rates in the control and treated cell cultures.
(§2) NIH3T3, T47D, A-431, HT-29, and MEL-28 cells were cultured as indicated earlier. CaOV-3 human ovarian cancer cells were cultured in DMEM containing 10% FBS. ZR-75-1 human estrogen receptor-positive breast cancer cells were maintained in RPMI 1640 medium supplemented with 10% FBS. HTB-157 human fetal fibroblasts, MEL-24 human malignant melanoma cells, Hep G2 human hepatoblastoma cells, and CaCO-2 human colon adenocarcinoma cells were maintained in Eagles's MEM containing 10% FBS. MB-231 human estrogen receptor-negative breast cancer cells were maintained in Leibovitz's L-15 medium supplemented with 10% FBS. Cells were seeded into 96-well plates and treated at ˜70-90% confluency. Two hours prior to treatments the medium was changed for fresh 10% serum medium, and then the cells were incubated for 10 days in the absence (□) or presence of 50 μM CCDTHT ? or 100 μM CCDTHT (▪). The medium was changed and the cells were re-treated on days 3 and 6. The MTT assay was used to determine cell viability on day 10. The data, shown in FIG. 6, are the mean±std. dev. of 8 incubations in one experiment. (The experiment was repeated twice with similar results).
The MRC-5 cell line is derived from normal lung tissue of a […] fetus. MRC-5 cells were maintained and treated in Eagles Medium with Hanks' BSS containing 10% fetal bovine serum. The T47D cells were maintained and treated in RPMI 1640 medium supplemented with 0.2 IU bovine insulin and 10% fetal bovine serum. The CaOV-3 human ovarian cancer cells were cultured in Dulbecco's modified Eagle's medium containing 10% fetal bovine serum. The cells were seeded in 96-well plates either at 10,000 cells per well or 30,000 cells per well to examine the antiproliferative and cytotoxic effects of various CC compounds, respectively. The cells were incubated for 24 hours, then the medium was changed followed by the treatments of cultures 2 hours after the medium change. At this point, cell cultures seeded at 10,000 cells per well and 30,000 cells per well were 25-35% and 80-90% confluent, respectively. Incubations were continued for 72 hours followed by the MTT assay. The data, shown in TABLE 2, indicate the inhibitory concentrations of CC compounds (IC50) required for 50% decrease in the number of viable cells. These numbers are calculated from the mean of 4 incubations in one experiment (the experiment was repeated once with similar results). […]

The test system of the next assay is NIH 3T3 cells. The assay can be described thus: Viability of NIH 3T3 normal fibroblasts (MTT assay). The assay is classed as cell-based. Conditions: 72 hours; for cytotoxicity at 100 µM: Mus musculus, NIH3T3, read-out: Decrease in cell number (maximal decrease = 100%), NIH 3T3. Here is the method: as §1
The NIH 3T3 (normal) mouse fibroblast, A431 human epidermoid adenocarcinoma, and MCF-7 human breast cancer cells were cultured in DMEM medium containing 10% FBS. The MEL-28 human melanoma cells were cultured in MEM medium containing 10% FBS. The HT-29 human colon adenocarcinoma cells were cultured in McCoy's 5a medium containing 10% FBS. The A549 human lung carcinoma cells were maintained in Ham's F12K medium containing 10% FBS. Cells were seeded into 96-well plates and treated at ˜70-90% confluency. Two hours before treatments the medium was changed for fresh 10% serum medium, and then the cells were incubated for 72 hours in the presence of 0-200 μM of CCompound1 (●) or CCompound3 (CCDTHT) (▴), as indicated. The MTT assay was used to determine cell viability after treatments. The values, shown in FIGS. 5A-5F and expressed as percent decrease in viability compared to the untreated control cells, are the mean±std. dev. of 8 incubations in one experiment. Similar results were obtained in another experiment.
as §2
NIH 3T3, MEL-28, MEL-24, CaOV-3, ZR-75-1, and T47D cells were cultured as described above. The OVCAR human ovarian cancer cells were cultured in DMEM containing 10% FBS. Cells were seeded into 96-well plates and used at ˜60-80% confluency. […]

A further assay deals with OVCAR cells. The assay can be described thus: Viability of OVCAR ovarian cancer cells (MTT assay). Format: cell-based. Conditions: Homo sapiens, 72 hours, read-out: Decrease in cell number (maximal decrease = 100%), OVCAR. Here is the method:
as §1
(§3) NIH 3T3, MEL-28, MEL-24, CaOV-3, ZR-75-1, and T47D cells were cultured as described above. The OVCAR human ovarian cancer cells were cultured in DMEM containing 10% FBS. Cells were seeded into 96-well plates and used at ˜60-80% confluency. Two hours before treatments the medium was changed for fresh 10% serum medium, and then the cells were incubated for 72 hours in the absence or presence of 100 μM of each of CC compounds as listed in TABLE 3. The inhibitory effects of CC compounds on cell proliferation are expressed as percent decrease compared to untreated cell cultures (the greater the number, the greater the inhibitory effect of the CC compound). […] Also, for the treatment of ovarian cancer and breast cancer, CCDTHT seems to be the best choice (although in this experiment CCompounds21-26 were not tested).

In a further assay the test system is MEL-24 cells. As to the kind of experiment: Viability of MEL-24 melanoma cells (MTT assay). Format: cell-based. The settings on record: Homo sapiens; for inhibition at 100 µM: 72 hours, read-out: Decrease in cell number (maximal decrease = 100%), MEL-24. Here is the method:
as §1, §2, §3

The subject of another assay is ZR-75-1 cells. The assay can be described thus: Viability of ZR-75-1 breast cancer cells (MTT assay). Format: cell-based, human. Conditions: for inhibition at 100 µM: Homo sapiens, ZR-75-1, 72 hours, read-out: Decrease in cell number (maximal decrease = 100%), ZR-75-1. The protocol:
as §1, §2, §3

Where a name gives a salt, the structure may show the parent alone. Read-outs that look alike come from different tables or passages of the source.

For `CC[N+](C)(CC)CCOCc1ccc2sc3ccccc3c(=O)c2c1.[I-]` [CCDTHT, N,N-diethyl-N-methyl-2-[(9-oxo-9H-thioxanthen-2-yl)methoxy]-ethanaminium iodide], the “sensitivity to the inhibitory actions, CaOV-3” value with CaOV-3 cells (50 and 100 μM, 10 days, MTT) is “very sensitive”. Moreover, the inhibition at 100 µM with CaOV-3 cells was determined as 84%; with OVCAR cells, 63%; in the assay on MEL-24 cells, 15%; in the assay on ZR-75-1 cells, 74%. For the same molecule, the IC50 in the assay with CaOV-3 cells (10,000 cells per well (25-35% confluent), MTT, read-out: IC50 values, Antiproliferative, CaOV-3) came to 38 µM; with CaOV-3 cells (30,000 cells per well (80-90% confluent), MTT, read-out: IC50 values, Cytotoxic, CaOV-3), 39 µM. The “sensitivity compared with HaCaT cells, NIH 3T3 fibroblasts” value in the assay on NIH 3T3 cells (50 and 100 μM, MTT) is listed as “significantly less sensitive”. The cytotoxicity at 100 µM with NIH 3T3 cells is 29%; in the assay on MEL-24 cells (240 h, 10 days, MTT, read-out: reduction in the number of viable cells, MEL-24), ≤ 50%. The “sensitivity to the inhibitory actions, ZR-75-1” value with ZR-75-1 cells (50 and 100 μM, 10 days, MTT) was “very sensitive”.

Take `CC[N+](CC)(CC)CCCOCc1ccc2sc3ccccc3c(=O)c2c1` [CCcompound9, N,N,N-Triethyl-3-[(9-oxo-9H-thioxanthen-2-yl)methoxy]-propane-1-aminium iodide]: the inhibition at 100 µM in the assay on CaOV-3 cells turned out to be 45%; in the assay with OVCAR cells, 41%; in the assay with MEL-24 cells, 4%; in the assay with ZR-75-1 cells, 70%. In addition, the cytotoxicity at 100 µM in the assay on NIH 3T3 cells worked out at 22%.

As for `CC[N+](C)(CC)CCCOCc1ccc2sc3ccccc3c(=O)c2c1` [CCcompound10, N,N-Diethyl-N-methyl-3-[(9-oxo-9H-thioxanthen-2-yl)methoxy]-propane-1-aminium iodide], the inhibition at 100 µM in the assay with CaOV-3 cells amounted to 45%; with OVCAR cells, 38%; in the assay on MEL-24 cells, 15%; in the assay on ZR-75-1 cells, 65%. The cytotoxicity at 100 µM in the assay on NIH 3T3 cells was determined as 21%.

`CC[N+](C)(C)CCCOCc1ccc2sc3ccccc3c(=O)c2c1` [CCcompound11, N,N-Dimethyl-N-ethyl-3-[(9-oxo-9H-thioxanthen-2-yl)methoxy]-propane-1-aminium iodide]: the inhibition at 100 µM with CaOV-3 cells was determined as 66%; in the assay on OVCAR cells, 62%; with MEL-24 cells, 20%; in the assay with ZR-75-1 cells, 75%. Moreover, the cytotoxicity at 100 µM in the assay on NIH 3T3 cells was determined as 21%.

Consider `CC[NH+](CC)CCCOCc1ccc2sc3ccccc3c(=O)c2c1` [CCcompound12, 2-{[3-(Diethylamino)propoxy]meth-yl}-9H-thioxanthen-9-one hydrochloride], for which the inhibition at 100 µM in the assay on CaOV-3 cells is 80%; in the assay on OVCAR cells, 30%; in the assay with MEL-24 cells, 73%; with ZR-75-1 cells, 17%. For the same molecule, in the assay with NIH 3T3 cells, the cytotoxicity at 100 µM was determined as 0%.

Regarding `C[N+](C)(CCO)Cc1ccc2sc3ccccc3c(=O)c2c1` [CCcompound13, 2-Hydroxy-N,N-dimethyl-N-[(9-oxo-9H-thioxanthen-2-yl)methyl]-ethanaminium bromide], the inhibition at 100 µM with CaOV-3 cells was found to be 53%; with OVCAR cells, 27%; in the assay on MEL-24 cells it was 12%; in the assay with ZR-75-1 cells, 48%. Also, the cytotoxicity at 100 µM with NIH 3T3 cells worked out at 25%.

Turning to `CC[N+](CC)(CCO)Cc1ccc2sc3ccccc3c(=O)c2c1` [CCcompound14, 2-Hydroxy-N,N-Diethyl-N-[(9-oxo-9H-thioxanthen-2-yl)methyl]-ethanaminium bromide], the inhibition at 100 µM in the assay with CaOV-3 cells was 69%; in the assay on OVCAR cells, 65%; with MEL-24 cells it was 21%; in the assay with ZR-75-1 cells, 53%. In the assay on NIH 3T3 cells, the cytotoxicity at 100 µM came to 30%.

With `C[N+](C)(CCCO)Cc1ccc2sc3ccccc3c(=O)c2c1` [CCcompound15, 3-Hydroxy-N,N-dimethyl-N-[(9-oxo-9H-thioxanthen-2-yl)methyl]propane-1-aminium bromide], the inhibition at 100 µM in the assay with CaOV-3 cells is 28%; with OVCAR cells it was 26%; in the assay with MEL-24 cells, 0%; with ZR-75-1 cells, 41%. Also, the cytotoxicity at 100 µM in the assay on NIH 3T3 cells turned out to be 11%.

Regarding `CC[N+](CC)(CCCO)Cc1ccc2sc3ccccc3c(=O)c2c1` [CCcompound16, 3-Hydroxy-N,N-diethyl-N-[(9-oxo-9H-thioxanthen-2-yl)methyl]-propane-1-aminium bromide], the inhibition at 100 µM with CaOV-3 cells came to 12%; in the assay on OVCAR cells it was 0%; in the assay on MEL-24 cells it was 0%; in the assay with ZR-75-1 cells, 39%. In addition, in the assay with NIH 3T3 cells, the cytotoxicity at 100 µM was determined as 19%.
